These results are taken from US9469645B2, “Compounds and compositions for the treatment of parasitic diseases” (Novartis AG, priority 2009, dated 2016).

The structures appear in SMILES notation.

One experiment concerns 3D7 P. falciparum strain. The experiment in a line: parasite proliferation assay in infected red blood cells (SYBR Green I). The format is cell-based, Plasmodium falciparum. As to conditions: Plasmodium falciparum, 3D7, Erythrocyte, 3D7 strain; read-out: EC50 3D7 strain. The method, boiled down:
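P. falciparum 3D7 grown in O+ human erythrocytes to 3–8% parasitemia and exposed to compounds. Proliferation read as the increase in parasite DNA. Detection used SYBR Green I in saponin/triton-X/EDTA lysis buffer, with overnight lysis at room temperature.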

The subject of a further experiment is W2 strain. Kind of experiment: parasite proliferation assay in infected red blood cells (SYBR Green I), W2 strain. It counts as cell-based, Plasmodium falciparum. The note with it: Plasmodium falciparum, Erythrocyte. The text has this: Compounds of the invention can be assayed to measure their capacity to inhibit proliferation of parasitemia in infected red blood cells. The proliferation is quantified by the addition of SYBR Green I (INVITROGEN)® dye which has a high affinity for double stranded DNA.

With `N[C@H](C(=O)N1CCn2c(nc(-c3ccc(F)cc3)c2Nc2ccc(F)cc2)C1)c1ccc(F)cc1` [Compound 472], the results for the EC50 in the experiment on 3D7 P. falciparum strain and in the experiment on W2 strain were 0.05 µM and 0.037 µM, respectively.
Take `N[C@@H](Cc1ccc(F)cc1)C(=O)N1CCn2c(nc(-c3ccc(F)cc3)c2Nc2ccc(F)cc2)C1` [Compound 473]: the values for the EC50 in the experiment on 3D7 P. falciparum strain and with W2 strain were 0.03 µM and 0.021 µM, respectively.
`Cc1ccc(C[C@H](N)C(=O)N2CCn3c(nc(-c4ccc(F)cc4)c3Nc3ccc(F)cc3)C2)cc1` [Compound 474]: the results for the EC50 in the experiment on 3D7 P. falciparum strain and in the experiment on W2 strain were 0.13 µM and 0.088 µM, respectively.
The corresponding values for `N[C@@H](Cc1ccc(F)c(F)c1)C(=O)N1CCn2c(nc(-c3ccc(F)cc3)c2Nc2ccc(F)cc2)C1` [Compound 475] are 0.04 µM and 0.03 µM.
The corresponding values for `N[C@@H](Cc1cscn1)C(=O)N1CCn2c(nc(-c3ccc(F)cc3)c2Nc2ccc(F)cc2)C1` [Compound 476] are 0.04 µM and 0.027 µM.
The corresponding values for `O=C([C@@H]1CCN1)N1CCn2c(nc(-c3ccc(F)cc3)c2Nc2ccc(F)cc2)C1` [Compound 477] are 0.07 µM and 0.055 µM.
With `CC(C)(C)[C@H](N)C(=O)N1CCn2c(nc(-c3ccc(F)cc3)c2Nc2ccc(F)cc2)C1` [Compound 478], the EC50 is 0.06 µM in the experiment with 3D7 P. falciparum strain and 0.039 µM with W2 strain.
Consider `Cc1ccc(Nc2c(-c3ccc(F)cc3)nc3n2CCN(C(=O)[C@@H](N)CC2CCC2)C3)cc1` [Compound 479], for which the EC50 is 0.02 µM in the experiment with 3D7 P. falciparum strain and 0.012 µM in the experiment on W2 strain.
For `Cc1ccc(Nc2c(-c3ccc(F)cc3)nc3n2CCN(C(=O)[C@@H](N)CC(C)C)C3)cc1` [Compound 480], the EC50 in the experiment on 3D7 P. falciparum strain was 0.03 µM; in the experiment on W2 strain, 0.022 µM.
The corresponding values for `CC[C@H](C)[C@H](N)C(=O)N1CCn2c(nc(-c3ccc(F)cc3)c2Nc2ccc(C)cc2)C1` [Compound 481] are 0.02 µM and 0.014 µM.
The corresponding values for `Cc1ccc(Nc2c(-c3ccc(F)cc3)nc3n2CCN(C(=O)[C@@H](N)c2ccc(F)cc2)C3)cc1` [Compound 482] are 0.02 µM and 0.009 µM.
The corresponding values for `Cc1ccc(Nc2c(-c3ccc(F)cc3)nc3n2CCN(C(=O)[C@@H](N)Cc2ccc(F)cc2)C3)cc1` [Compound 483] are 0.05 µM and 0.025 µM.
For `Cc1ccc(C[C@H](N)C(=O)N2CCn3c(nc(-c4ccc(F)cc4)c3Nc3ccc(C)cc3)C2)cc1` [Compound 484], the EC50 in the experiment on 3D7 P. falciparum strain was 0.04 µM; in the experiment on W2 strain it was 0.023 µM.
The corresponding values for `Cc1ccc(Nc2c(-c3ccc(F)cc3)nc3n2CCN(C(=O)[C@@H](N)Cc2ccc(F)c(F)c2)C3)cc1` [Compound 485] are 0.03 µM and 0.023 µM.
`Cc1ccc(Nc2c(-c3ccc(F)cc3)nc3n2CCN(C(=O)[C@@H](N)Cc2cscn2)C3)cc1` [Compound 486]: the concentration giving a half-maximal response (EC50) with 3D7 P. falciparum strain came to 0.03 µM; in the experiment on W2 strain, 0.016 µM.
The corresponding values for `N[C@H](C(=O)N1CCn2c(nc(-c3ccc(F)cc3)c2Nc2ccc(Cl)c(F)c2)C1)C1CC1` [Compound 487] are 0.04 µM and 0.031 µM.
The corresponding values for `N[C@@H](CC1CC1)C(=O)N1CCn2c(nc(-c3ccc(F)cc3)c2Nc2ccc(Cl)c(F)c2)C1` [Compound 488] are 0.02 µM and 0.013 µM.
The corresponding values for `CC(C)[C@H](O)C(=O)N1CCn2c(nc(-c3ccc(F)cc3)c2Nc2ccc(Cl)c(F)c2)C1` [Compound 489] are 0.01 µM and 0.009 µM.
Consider `N[C@H](C(=O)N1CCn2c(nc(-c3ccc(F)cc3)c2Nc2ccc(Cl)c(F)c2)C1)c1ccc(F)cc1` [Compound 490], for which the EC50 in the experiment with 3D7 P. falciparum strain was found to be 0.05 µM; in the experiment with W2 strain, 0.033 µM.
With `CC1(C)NCCn2c1nc(-c1ccc(F)cc1)c2Nc1ccc(F)cc1` [Compound 493], the EC50 was found to be 0.004 µM in the experiment on 3D7 P. falciparum strain and 0.005 µM in the experiment on W2 strain.
The corresponding values for `Cc1ccc(Nc2c(-c3ccc(F)c(C)c3)nc3n2CCNC3)cc1` [Compound 494] are 2.82 µM and 2.14 µM.
The corresponding values for `Cc1cc(Nc2c(-c3ccc(F)cc3)nc3n2CCN(C(=O)CN)C3(C)C)ccc1F` [Compound 495] are 0.09 µM and 0.039 µM.
Consider `Cc1cc(Nc2c(-c3ccc(F)cc3)nc3n2CCN(C(=O)CN)C3(C)C)ccc1Cl` [Compound 496], for which the 50% effective concentration (EC50) was determined as 0.03 µM with 3D7 P. falciparum strain and 0.008 µM in the experiment with W2 strain.
The corresponding values for `Cc1ccc(Nc2c(-c3ccc(F)c(Cl)c3)nc3n2CCNC3)cc1` [Compound 497] are 8 µM and 5.83 µM.
Take `Cc1ccc(Nc2c(-c3ccc(Cl)c(F)c3)nc3n2CCNC3)cc1` [Compound 498]: the EC50 came to 6.34 µM in the experiment with 3D7 P. falciparum strain and 6.74 µM with W2 strain.
On to `Cc1cccc(Nc2c(-c3ccc(F)cc3)nc3n2CCN(C(=O)CN)C3(C)C)c1` [Compound 499], for which the values for the EC50 in the experiment with 3D7 P. falciparum strain and in the experiment with W2 strain were 0.01 µM and 0.006 µM, respectively.
The corresponding values for `CC1(C)NC(=O)Cn2c1nc(-c1ccc(F)cc1)c2Nc1cccc(C(F)(F)F)c1` [Compound 500] are 1.56 µM and 1.1 µM.
The corresponding values for `CC1(C)NC(=O)Cn2c1nc(-c1ccc(F)cc1)c2Nc1cccc(F)c1` [Compound 501] are 0.4 µM and 0.305 µM.
The corresponding values for `Cc1ccc(Nc2c(-c3ccc(F)cc3)nc3n2CCN(C(=O)[C@@](C)(N)Cc2ccc(F)cc2)C3)cc1` [Compound 502] are 1.39 µM and 1.37 µM.
On to `Cc1ccc(Nc2c(-c3ccc(F)cc3)nc3n2CCN(C(=O)C(C)(N)CC(C)C)C3)cc1` (stereo not shown) [Compound 503], for which the EC50 in the experiment on 3D7 P. falciparum strain was found to be 0.12 µM; in the experiment on W2 strain it was 0.095 µM.
The corresponding values for `Cc1ccc(Nc2c(-c3ccc(F)cc3)nc3n2CCN(C(=O)[C@@](C)(N)CO)C3)cc1` [Compound 504] are 0.09 µM and 0.093 µM.
The corresponding values for `Cc1ccc(Nc2c(-c3ccc(F)cc3)nc3n2CCN(C(=O)C(C)(N)CO)C3)cc1` (stereo not shown) [Compound 505] are 0.14 µM and 0.116 µM.
The corresponding values for `CC1(C)NC(=O)Cn2c1nc(-c1ccc(F)cc1)c2Nc1ccc(Cl)c(Cl)c1` [Compound 506] are 0.19 µM and 0.198 µM.
On to `Cc1ccc(Nc2c(-c3ccc(F)cc3)nc3n2CC(=O)NC3(C)C)cc1` [Compound 507], for which the figures for the EC50 in the experiment with 3D7 P. falciparum strain and in the experiment with W2 strain were 0.14 µM and 0.136 µM, respectively.
The corresponding values for `CC1(C)NC(=O)Cn2c1nc(-c1ccc(F)cc1)c2Nc1ccc(Cl)cc1` [Compound 508] are 0.13 µM and 0.126 µM.
As for `CC1(C)NC(=O)Cn2c1nc(-c1ccc(F)cc1)c2Nc1ccc(F)c(F)c1` [Compound 509], the EC50 in the experiment with 3D7 P. falciparum strain amounted to 0.13 µM; with W2 strain, 0.134 µM.
On to `CC1(C)NC(=O)Cn2c1nc(-c1ccc(F)cc1)c2Nc1ccc(Cl)c(F)c1` [Compound 511], for which the EC50 in the experiment with 3D7 P. falciparum strain amounted to 0.04 µM; in the experiment with W2 strain it was 0.065 µM.
The corresponding values for `CC1(C)NC(=O)Cn2c1nc(-c1ccc(F)cc1)c2Nc1ccc(F)cc1` [Compound 512] are 0.19 µM and 0.165 µM.
The corresponding values for `CC1(C)NC(=O)Cn2c1nc(-c1ccc(F)cc1)c2Nc1ccc(F)c(Cl)c1` [Compound 513] are 0.17 µM and 0.195 µM.
As to `CC1(C)NCCn2c1nc(-c1ccc(F)cc1)c2Nc1cccc(F)c1` [Compound 514], the values for the EC50 in the experiment with 3D7 P. falciparum strain and in the experiment with W2 strain were 0.03 µM and 0.024 µM, respectively.
The corresponding values for `CC1(C)NCCn2c1nc(-c1ccc(F)cc1)c2Nc1cccc(C(F)(F)F)c1` [Compound 515] are 0.04 µM and 0.034 µM.
In the case of `CC1(C)c2nc(-c3ccc(F)cc3)c(Nc3cccc(F)c3)n2CCN1C(=O)C(F)(F)F` [Compound 516], the EC50 in the experiment with 3D7 P. falciparum strain worked out at 0.03 µM; in the experiment with W2 strain, 0.026 µM.
The corresponding values for `Cc1ccc(Nc2c(-c3ccc(F)c(C)c3)nc3n2CCN(C(=O)CN)C3)cc1` [Compound 517] are 0.05 µM and 0.051 µM.
As to `Cc1ccc(Nc2c(-c3ccc(F)c(C)c3)nc3n2CCN(C(=O)C(C)(C)N)C3)cc1` [Compound 518], the values for the EC50 in the experiment with 3D7 P. falciparum strain and in the experiment on W2 strain were 4.98 µM and 2.89 µM, respectively.
The corresponding values for `Cc1ccc(Nc2c(-c3ccc(F)c(Cl)c3)nc3n2CCN(C(=O)CN)C3)cc1` [Compound 519] are 0.84 µM and 0.59 µM.
The corresponding values for `Cc1ccc(Nc2c(-c3ccc(Cl)c(F)c3)nc3n2CCN(C(=O)CN)C3)cc1` [Compound 520] are 0.16 µM and 0.158 µM.
The corresponding values for `Cc1ccc(Nc2c(-c3ccc(Cl)c(F)c3)nc3n2CCN(C(=O)C(C)(C)N)C3)cc1` [Compound 521] are 5 µM and 3.03 µM.
On to `CC1(C)c2nc(-c3ccc(F)cc3)c(Nc3ccc(F)c(C#N)c3)n2CCN1C(=O)CN` [Compound 522], for which the EC50 in the experiment with 3D7 P. falciparum strain was 0.0017 µM; with W2 strain, 0.002 µM.
With `CC1(C)NCCn2c1nc(-c1ccc(F)cc1)c2Nc1ccc(F)c(C(=O)O)c1` [Compound 523], the EC50 worked out at 13.1 µM with 3D7 P. falciparum strain and 11.6 µM with W2 strain.
For `CC1(C)NCCn2c1nc(-c1ccc(F)cc1)c2Nc1ccc(F)c(C#N)c1` [Compound 524], the EC50 stood at 0.04 µM in the experiment with 3D7 P. falciparum strain and 0.057 µM with W2 strain.
The corresponding values for `Cc1ccc(Nc2c(-c3ccc(F)cc3)nc3n2CCN(C(=O)CN)C3(C)C)cc1C#N` [Compound 525] are 0.01 µM and 0.013 µM.
The corresponding values for `Cc1ccc(Nc2c(-c3ccc(F)cc3)nc3n2CCNC3(C)C)cc1C(=O)O` [Compound 526] are 1.12 µM and 0.974 µM.
`Cc1ccc(Nc2c(-c3ccc(F)cc3)nc3n2CCNC3(C)C)cc1C#N` [Compound 527]: the figures for the EC50 with 3D7 P. falciparum strain and with W2 strain were 0.004 µM and 0.006 µM, respectively.

One may read the EC50 as the concentration that produces a half-maximal response.
